Laboratory results as given in PMC6008493, “Thioamide substitution to probe the hydroxyproline recognition of VHL ligands” (Bioorganic & Medicinal Chemistry, 2018).
Like-named read-outs stand apart in the source and are kept apart here.

How the values were obtained:
[1] = Quantification of ligand trans and cis isomers in solution by NMR; format: physicochemical; details: free ligand in solution
Source text: We next evaluated the impact of thioamide substitutions to the n → π^∗ interaction in the ligand free state in solution. This interaction is only possible when the Hyp (thio)amide group is in the trans isomer conformation (Fig. 1A). Thus, the ratio between the trans and cis isomers at equilibrium can be used to infer the strength of the n → π^∗ interaction.[13]
Quantification of ligands trans and cis isomers in solution.

[2] = target: T1, VBC protein (VHL, elongin B, elongin C) (Homo sapiens, UniProt P40337); assay: Competitive fluorescence polarization (FP) binding assay displacing FAM-labelled HIF-1α peptide
T1 construct: made in house
Description: Control wells contained VBC and peptide in the absence of compound (maximum signal), and peptide in the absence of protein (background signal). Data were obtained in triplicate and the percentage of displacement was determined and graphed against log[VHL inhibitors]. Average IC50 values and the standard error of the mean (SEM) were determined for each titration using Prism 6. Dissociation constants Kd were back-calculated from the measured IC50 values using a displacement binding model, as described previously.^6

[3] = target: VBC complex (VHL, elongin B, elongin C) (Homo sapiens, UniProt P40337); assay: Isothermal titration calorimetry (ITC) direct titration; details: for ΔH: ITC enthalpy of binding; for ΔH / Kd: 25°C; for Kd: read-out: Kd ITC, pH 7, 3% DMSO
[4] = back-calculated from measured IC50, 15 nM VBC, 10 nM FAM-HIF-1α peptide, pH 7, read-out: Kd FP
[5] = relative to unmodified ligand 1

CC(=O)N[C@@H](C)C(=O)N1C[C@H](O)C[C@H]1C(=O)NCc1ccc(-c2scnc2C)cc1 [compound 1]
trans:cis (%) - cis isomer [1]: 8%
trans:cis (%) - trans isomer [1]: 92%

CC(=O)N[C@@H](C)C(=O)N1C[C@H](O)C[C@H]1C(=S)NCc1ccc(-c2scnc2C)cc1 [compound 2, N-((S)-1-((2S,4R)-4-Hydroxy-2-((4-(4-methylthiazol-5-yl)benzyl)carbamothioyl)pyrrolidin-1-yl)-1-oxopropan-2-yl)acetamide]
trans:cis (%) - cis isomer [1]: 11%
trans:cis (%) - trans isomer [1]: 89%

CC(=O)N[C@@H](C)C(=S)N1C[C@H](O)C[C@H]1C(=O)NCc1ccc(-c2scnc2C)cc1 [compound 3, (2S,4R)-1-((S)-2-Acetamidopropanethioyl)-4-hydroxy-N-(4-(4-methylthiazol-5-yl)benzyl)pyrrolidine-2-carboxamide]
Kd [2, 4]: 1 ± 0.4 µM
loss in binding affinity by FP [2, 5]: twofold
trans:cis (%) - cis isomer [1]: 6%
trans:cis (%) - trans isomer [1]: 94%
ΔH [3]: -6.79 ± 0.01 kcal/mol
Kd [3]: 0.76 ± 0.02 µM
loss in binding affinity by ITC [3, 5]: twofold

CC(=O)N[C@@H](C)C(=S)N1C[C@H](O)C[C@H]1C(=S)NCc1ccc(-c2scnc2C)cc1 [compound 4, N-((S)-1-((2S,4R)-4-hydroxy-2-((4-(4-methylthiazol-5-yl)benzyl)carbamothioyl)pyrrolidin-1-yl)-1-thioxopropan-2-yl)acetamide]
Kd [2, 4]: > 13 µM
Kd ([2]; text summary of FP and ITC, read-out: Kd): > 10 µM
trans:cis (%) - cis isomer [1]: 10%
trans:cis (%) - trans isomer [1]: 90%
ΔH [3]: -2.56 ± 0.01 kcal/mol
Kd [3]: 21.6 ± 0.8 µM
